Results: article PMC6981960 (2019)
One block for each compound: values may come before it.

Tests used:
[1] = system: NP7 (DNA, aptamer) ATGCGGATCCCGCGCGGCCGGCCAGTGCGCGAAGCTTGCGC; experiment: AuNP colorimetric aggregation assay; conditions: NaCl added to aggregate AuNPs (10 μL, printed 850 nM), aptamer 4 μM
[2] = system: NP7 (DNA, aptamer) ATGCGGATCCCGCGCGGCCGGCCAGTGCGCGAAGCTTGCGC; experiment: circular dichroism; conditions: 137 mM NaCl, 2.7 mM KCl; PBS pH 7.4, 25 °C; aptamer 2 μM; 4-n-NP 0, 100, 1000 nM; qualitative change near 250 nm

SMILES: CCCCC(CC)COC(=O)c1ccccc1C(=O)OCC(CC)CCCC (centres unmarked)
binding ([1]; DEHP same amount as nonylphenol (200 nM stated)): no

SMILES: CCCCCCCCCc1ccc(O)cc1
binding [2]: yes

SMILES: CC(C)(c1ccc(O)cc1)c1ccc(O)cc1
binding ([1]; bisphenol A same amount as nonylphenol (200 nM stated)): weak

Other lines, results leading:

binding ([1]; penicillin G same amount as nonylphenol (200 nM stated)): no
SMILES: CC1(C)S[C@@H]2[C@H](NC(=O)Cc3ccccc3)C(=O)N2[C@H]1C(=O)O

binding ([1]; phenol same amount as nonylphenol (200 nM stated)): no
SMILES: Oc1ccccc1
